Results: patent publication US20050064382A1, “Method of prevention of lysosomal leakage in eukaryotic cells by using 6-methyluracil based water-soluble compounds and method of producing thereof” (priority 2002, published 2005)

Assays:
Drosophila [1] = assay: Sterol-deficit diet and both drugs: frequency of X-chromosomes loss in late oocytes of Drosophila; type: in vivo; details: yeast of wild type
Text: The classic genetic model was used, based on the well-known method: the frequency of mutations in Drosophila (fruit flies) caused by X-rays. It is known that the frequency of these mutations can be increased by adding to the food of females certain membrane destabilizers (we used Polyene Antibiotics—Amphotericin B), or by the use of a special diet. Like all insects, Drosophila obtain all of their sterols from food (yeast for Drosophila). A special diet rich with Nistatin (Polyene antibiotic) resistant yeast was used.
The frequency of the loss of x-chromosomes (males excluded) was measured after crossing with the […]. Females were given a dose of 1000 Roentgens 5 days before being given the food additive or “special diet”.
Influence of sterol-deficit diet and both drugs on the frequency of X-chromosomes loss in late oocytes of Drosophila. Groups 1-4 received yeast of wild type, groups 5,6 (diet) received nistatin resistant yeasts meaning groups 5,6 had abnormal sterols in membranes: […]

Drosophila [2] = assay: X-ray caused loss of X-chromosomes in late oocyte of Drosophila; type: in vivo; details: 1000 Roentgens
Water solubility = type: physicochemical

Structure (SMILES) | Frequency of X-Chromosomes loss, % (Drosophila [1]) | Frequency of the loss of X-chromosomes, % (Drosophila [2]; 1.0 mkg/female) | Frequency of the loss of X-chromosomes, % (Drosophila [2]; 5.0 mkg/female) | Frequency of the loss of X-chromosomes, % (Drosophila [2]; 10.0 mkg/female) | Frequency of the loss of X-chromosomes, % (Drosophila [2]; 15.0 mkg/female) | Frequency of the loss of X-chromosomes, % (Drosophila [2]; 20.0 mkg/female) | solubility (Water solubility)
C[C@@H]1[C@H](O)[C@@H](C)/C=C/C=C/C=C/C=C/C=C/C=C/C=C/[C@H](O[C@@H]2O[C@H](C)[C@@H](O)[C@H](N)[C@@H]2O)C[C@@H]2O[C@](O)(C[C@@H](O)C[C@@H](O)[C@H](O)CC[C@@H](O)C[C@@H](O)CC(=O)O[C@H]1C)C[C@H](O)[C@H]2C(=O)O [Amphotericin B, reference compound] | 4.3 ± 0.29% | 1.4 ± 0.19% | 2.1 ± 0.21% | 3.6 ± 0.35% | 4.1 ± 0.41% | 4.2 ± 0.61% | 
O=C1CCC(N2C(=O)c3ccccc3C2=O)C(=O)N1 (stereo not shown) [thalidomides, thalidomide] |  |  |  |  |  |  | < 3000 µg/mL
